Measurements: US20160272953A1, “Activated Sugars” (ZuChem, Inc., priority 2010, published 2016)

Legend:
EP-P2 [1] = assay: Nucleotidylyltransferase substrate specificity by TLC, EP-P2; format: biochemical, P. furiousus; conditions: 90° C., 6 mM substrate
Source text: (§1) A fourth nucleotidlylytransferaseenzyme has been cloned from P. furiousus (EP-P2) that has previously been shown capable of converting the only commercially available L-sugar-1-phosphate (L-fucose-1-P),[47] transferring 82% to produce UDP-L-Fucose as determined by ESI-MS. EP-P2 additionally has a broad activity range on 6 other D-sugar-1-phosphates. This enzyme was cloned as a His-tag fusion and purified by IMAC. Since we had 4 different enzymes (EP-S, EP-T, EP-P, and EP-P2) with different characteristics and substrate specificities, experiments were designed to test the substrate specificities on purified nucleotidlylytransferase enzyme and pure substrates. Reactions with each of the 4 nucleotidlylytransferase enzymes were set up using 4 different sugar-1-phosphates and 2 different nucleotides (32 reactions total), with each enzyme incubated near its optimal temperature. In a total volume of 200 μL the reactions contained 25 μL of purified enzyme, 5 mM MgCl2, 6 mM nucleotide, 6 mM sugar-1-phosphate, 4 U thermophilic pyrophosphatase (commercially available). The 4 sugar-1-phosphates were D-glucose-1-phosphate, L-glucose-1-phosphate, D-galactose-1-phosphate, and D-mannose-1-phosphate, while the 2 nucleotides chosen were dTTP and UTP. EP-P and EP-P2 were incubated at 90° C., EP-T at 65° C., and EP-S at 45° C. Samples were taken at the time of enzyme addition and every hour for three hours and then analyzed by TLC using 80% aqueous acetonitrile +10 mM TBAHS; visualized by UV and stained in KMnO4.
The UV visible spots were circled in black for FIG. 6-3 to aid in visualization as only the nucleotides and nucleotide-activated sugars are UV active. The upper left plates show TLC of standard compounds. […] To our knowledge these are the first examples of commercially viable dTDP-L-glucose enzymatic production. […] EP-S had good activity on both D-glu-1P and D-mann-1P. EP-P and EP-T both were only active on D-glucose-1P with UTP as the nucleotide. […] Furthermore, many of the reactions proceeded to completion by the first time point analyzed.

E. coli GalKMLYH = molecular target: T1, E. coli GalKMLYH (Escherichia coli, UniProt P0A6T3, D325E/M173L/Y371H); assay: GalKMLYH conversion of L-sugars at 16° C.; format: biochemical; conditions: 5 hrs of incubation, partially purified cell extract
T1 construct: made in house; host or cells: E. coli
Experimental: The GalKMLYH enzyme was finally tested at 16° C. for the conversion of several other L-sugars using partially purified cell extract from the overexpressing E. coli strain and typical reaction conditions.

[2] = molecular target: T2, wild-type P. furiosus enzyme (Pyrococcus furiosus, UniProt Q9HHB6); assay: GalK activity by ATP to ADP conversion (HPLC), wild-type enzyme; format: biochemical; conditions: 200 mM sugar, 100 mM ATP, 1 ug/ml enzyme, 60° C., 20 hours
T2 construct: 6-His (N); made in house; host or cells: E. coli
Experimental: The reaction of sugars with the wild type and mutant sugar-1-kinse such as those from Pyrococcus furiousus can also be monitored by following ATP consumption in the reaction. The amount of ATP consumption directly correlates with the amount of sugar-1-kinase produced. For example, to produce additional sugar-1-phosphates a series of experiments were carried out as follows, In a reaction mix containing 50 mM sodium phosphate buffer at pH 7.5, 100 mM ATP, 200 mM of the sugar being tested, 5mM MgC12 either 1 ug/ml of either the PK27 mutant or wild-type P. furiosus enzyme were added. The reaction was incubated at 60° C. for 20 hours. ATP and ADP concentrations were analyzed by HPLC using a Supelcosil LC-18-T column with a flow rate of 1.0 mL/min of 0.05 M. KH2P04/4 mM tetrabutylammonium hydrogen sulfate and a linear gradient solvent program of 0-30% methanol over 30 min. The percent conversion of ATP to ADP was calculated. Sugar-1-phosphate was analyzed by HPLC using Supelcosil LC-SAX column 0.05 M K-phosphate buffer, pH 6.0
GalK activity by ATp to ADp conversion, 20 h. Percentages indicate degree reaction proceeded to completion within 20 hours.

EP-S = assay: Nucleotidylyltransferase substrate specificity by TLC, EP-S; format: biochemical, Streptococcus thermophilus; conditions: UTP, 45° C., 6 mM substrate
Source text: as §1, with “In a total volume of 200 μL the reactions contained 25 μL of purified enzyme, 5 mM MgCl2, 6 mM nucleotide, 6 mM sugar-1-phosphate, 4 U thermophilic pyrophosphatase (commercially available). The 4 sugar-1-phosphates were D-glucose-1-phosphate, L-glucose-1-phosphate, D-galactose-1-phosphate, and D-mannose-1-phosphate, while the 2 nucleotides chosen were dTTP and UTP. EP-P and EP-P2 were incubated at 90° C., EP-T at 65° C., and EP-S at 45° C.” left out
(§2) The UV visible spots were circled in black for FIG. 6-3 to aid in visualization as only the nucleotides and nucleotide-activated sugars are UV active. […] Furthermore, many of the reactions proceeded to completion by the first time point analyzed.

EP-T = assay: Nucleotidylyltransferase substrate specificity by TLC, EP-T; format: biochemical, Thermus thermophilus; conditions: 65° C., 6 mM substrate
Source text: as §1, with “In a total volume of 200 μL the reactions contained 25 μL of purified enzyme, 5 mM MgCl2, 6 mM nucleotide, 6 mM sugar-1-phosphate, 4 U thermophilic pyrophosphatase (commercially available). The 4 sugar-1-phosphates were D-glucose-1-phosphate, L-glucose-1-phosphate, D-galactose-1-phosphate, and D-mannose-1-phosphate, while the 2 nucleotides chosen were dTTP and UTP. EP-P and EP-P2 were incubated at 90° C., EP-T at 65° C., and EP-S at 45° C.” left out
as §2

EP-P = assay: Nucleotidylyltransferase substrate specificity by TLC, EP-P; format: biochemical, Pyrococcus furiosus; conditions: UTP, 90° C., 6 mM substrate
Source text: as §1, with “In a total volume of 200 μL the reactions contained 25 μL of purified enzyme, 5 mM MgCl2, 6 mM nucleotide, 6 mM sugar-1-phosphate, 4 U thermophilic pyrophosphatase (commercially available). The 4 sugar-1-phosphates were D-glucose-1-phosphate, L-glucose-1-phosphate, D-galactose-1-phosphate, and D-mannose-1-phosphate, while the 2 nucleotides chosen were dTTP and UTP. EP-P and EP-P2 were incubated at 90° C., EP-T at 65° C., and EP-S at 45° C.” left out
as §2

[3] = system: Sugar-1-kinase-P and nucleotidyltransferase-S; assay: One-pot coupled sugar-1-kinase / nucleotidyltransferase reaction (TLC); format: biochemical; conditions: for conversion to dTDP-sugar, estimated by TLC: dTTP 8 mM as nucleotide donor
Experimental: (§3) Initial coupling of the reaction was tested for 1-pot synthesis of NDP-sugars. The reaction was started with 12 mM ATP, 3.5 mM MgCl2, and 8 mM of either L-Glucose or D-galactose. Partially purified Sugar-1-kinase-P was added to the mixture and a sample was taken at 0 and 60 minutes. After 60 minutes, dTTP or UTP (8 mM), 20 μL nucleotidyltransferase-S, and 2 μL of commercially available thermostable pyrophosphatase were added to the reaction and samples were taken at different time points and analyzed by TLC as shown in FIG. 7-1. […] Upon addition of the second enzyme and nucleotide, the formation of dTDP-D-galactose and dTDP-L-glucose began. The sugar nucleotides were more clearly visualized by UV, but can also been seen in the KMnO4 stained TLC plates in FIG. 6-1.
The conversion is estimated to be greater than 80% based on the loss of Gal-1-P and appearance of dTDP-Gal on TLC. The reaction with L-glucose and dTTP was also successful, however, the conversion was lower and estimated to be 20% by TLC.

Sugar-1-kinase-P = assay: One-pot reaction, first step: phosphorylation by Sugar-1-kinase-P (DNS assay, TLC); format: biochemical, Pyrococcus furiosus; conditions: 8 mM sugar, 12 mM ATP, first 60 minutes
Experimental: as §3

Sugar-1-kinase-S = assay: Time course conversion of alternative substrates by Sugar-1-kinase-S; format: biochemical, Streptococcus thermophilus; conditions: 45° C., ~300 minutes, partially purified cell extract
[4] = molecular target: engineered E. coli GalKMLYH (Escherichia coli, UniProt P0A6T3, D325E/M173L/Y371H); conditions: substrate 1.5 g/L, purified enzyme 0.6 g/L; cited from earlier work
WT Sugar-1-kinase-P = molecular target: T3, WT Sugar-1-kinase-P (Pyrococcus furiosus, UniProt Q9HHB6); assay: Substrate specificity of purified WT Sugar-1-kinase-P (DNS assay); format: biochemical; conditions: 8 mM sugar, 2.4 mg/ml enzyme, 12 mM ATP, 5 mM MgCl2, pH 7.5 phosphate buffer
T3 construct: 6-His (N); made in house; host or cells: E. coli
Experimental: Often, when applying protein engineering to activity on a new substrate the resulting enzyme has relaxed substrate specificity which we wanted to achieve. The purified Sugar-1-kinase-PK27 was then tested for the conversion of a variety of sugars and compared to purified WT Sugar-1-kinase-P. The reactions were setup with 8 mM of different sugars (L-ribose, L-galactose, L-glucose, L-arabinose, L-xylose, L-rhamnose, L-mannose, L-gulose, L-fucose, and 6-Azido-D-galactose), 2.4 mg/ml enzyme, 12 mM ATP, and 5 mM MgCl2 in pH 7.5 phosphate buffer. Samples were taken every hour and analyzed by DNS assay (FIG. 4-5A).

nucleotidyltransferase-S = assay: Nucleotidyltransferase-S activity with Gal-1-P and dTTP (TLC and malachite green); format: biochemical, Streptococcus thermophilus; conditions: 7 mM Gal-1-P, 7 mM dTTP, 0.1 U pyrophosphatase
Experimental: The nucleotidyltransferase-S enzyme was chosen for further study due to its high expression in E. coli. Nucleotidyltransferase activity was measured with the commercially available substrate D-galactose-1-phosphate (Gal-1-P). This is not the natural substrate of homologous nucleotidyltransferases, which is D-glucose-1-phosphate. Nucleotidyltransferase-S was incubated with 7 mM Gal-1-P, 7 mM dTTP, and 0.1 U of pyrophosphatase. The reaction was monitored by two different methods. […] The second method of assay was a malachite green based inorganic phosphate assay. When dTTP is coupled to a Sugar-1-phosphate it releases pyrophosphate which is broken down to pyrophosphatase to 2 molecules of inorganic phosphate.

EP-P2 [5] = conditions: determined by ESI-MS; cited from earlier work

T2 sequence (Q9HHB6 whole entry): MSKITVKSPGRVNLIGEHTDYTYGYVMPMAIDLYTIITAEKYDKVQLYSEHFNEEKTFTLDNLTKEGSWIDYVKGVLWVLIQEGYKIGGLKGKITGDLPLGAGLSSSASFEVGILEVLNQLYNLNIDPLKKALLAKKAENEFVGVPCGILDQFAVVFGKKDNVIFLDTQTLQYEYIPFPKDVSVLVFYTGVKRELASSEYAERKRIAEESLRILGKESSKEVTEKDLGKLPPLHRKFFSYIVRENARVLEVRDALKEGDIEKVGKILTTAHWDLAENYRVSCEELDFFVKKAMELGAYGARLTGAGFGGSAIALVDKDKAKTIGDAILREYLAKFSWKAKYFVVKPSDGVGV
T3 sequence (Q9HHB6 whole entry): as above

## O=P(O)(O)OC1OC(CO)C(O)C(O)C1O [L-glu-1P, L-glucose-1-phosphate]
EP-P2 [1]; UTP
  activity on sugar-1-phosphate: did not appear to appreciably convert
EP-P2 [1]; dTTP
  activity on sugar-1-phosphate: showed activity

## O=C[C@@H](O)[C@H](O)[C@@H](O)CO [L-xylose]
E. coli GalKMLYH
  activity of GalK mutant on substrate: did not display significant activity

## O=C[C@@H](O)[C@@H](O)[C@H](O)[C@H](O)CO [D-mannose]
[2]
  degree reaction proceeded to completion (ATP to ADP conversion), WT Pyrococcus furiosus: 54%

## C[C@H](O)[C@H](O)[C@@H](O)[C@@H](O)C=O [L-rhamnose]
E. coli GalKMLYH
  activity of GalK mutant on substrate: did not display significant activity

## O=P(O)(O)O[C@H]1O[C@H](CO)[C@@H](O)[C@H](O)[C@H]1O [D-glu-1P, D-glucose-1-phosphate]
EP-S
  activity on sugar-1-phosphate: good activity
EP-T; UTP
  activity on sugar-1-phosphate: only active
EP-T; dTTP
  activity on sugar-1-phosphate: converted
EP-P
  activity on sugar-1-phosphate: only active
EP-P2 [1]; dTTP
  activity on sugar-1-phosphate: showed activity

## O=C[C@H](O)[C@@H](O)[C@@H](O)[C@H](O)CO [D-Galactose]
[3]
  conversion to dTDP-sugar, estimated by TLC: greater than 80%
[2]
  degree reaction proceeded to completion (ATP to ADP conversion), WT Pyrococcus furiosus: 90%
Sugar-1-kinase-P
  conversion to sugar-1-phosphate: completely converted

## O=C[C@@H](O)[C@@H](O)[C@H](O)[C@@H](O)CO [L-gulose]
E. coli GalKMLYH
  activity of GalK mutant on substrate: did not display significant activity

## O=C[C@@H](O)[C@H](O)[C@@H](O)[C@@H](O)CO [L-glucose]
Sugar-1-kinase-S
  reaction completion: 95-100%
[3]
  conversion to dTDP-sugar, estimated by TLC: ~20%
Sugar-1-kinase-P
  conversion to sugar-1-phosphate: completely converted
[4]
  conversion to 1-phosphate: 25%
E. coli GalKMLYH
  activity of GalK mutant on substrate: did not display significant activity
WT Sugar-1-kinase-P
  activity on sugar: displayed activity

## O=P(O)(O)O[C@H]1O[C@H](CO)[C@@H](O)[C@H](O)[C@@H]1O [D-mannose-1P, D-mannose-1-phosphate]
EP-S
  activity on sugar-1-phosphate: good activity
EP-P2 [1]; dTTP
  activity on sugar-1-phosphate: showed activity

## O=c1ccn([C@@H]2O[C@H](COP(=O)(O)OP(=O)(O)OP(=O)(O)O)[C@@H](O)[C@H]2O)c(=O)[nH]1 [UTP]
[3]; 8 mM, one-pot coupled reaction
  outcome as alternative nucleotide donor: did not result in a successfully coupled reaction

## O=C[C@@H](O)[C@@H](O)[C@@H](O)CO [L-ribose]
E. coli GalKMLYH
  activity of GalK mutant on substrate: did not display significant activity

## O=C[C@H](O)[C@@H](O)[C@H](O)CO [D-xylose]
[2]
  degree reaction proceeded to completion (ATP to ADP conversion), WT Pyrococcus furiosus: 50%

## C[C@@H](O)[C@H](O)[C@H](O)[C@@H](O)C=O [D-fucose]
[2]
  degree reaction proceeded to completion (ATP to ADP conversion), WT Pyrococcus furiosus: 78%

## O=C[C@H](O)[C@H](O)[C@@H](O)[C@@H](O)CO [L-mannose]
E. coli GalKMLYH
  activity of GalK mutant on substrate: did not display significant activity

## O=P(O)(O)O[C@H]1O[C@H](CO)[C@H](O)[C@H](O)[C@H]1O [D-galactose-1-phosphate]
nucleotidyltransferase-S
  activity with substrate: active

## C[C@@H]1O[C@H](OP(=O)(O)O)[C@@H](O)[C@H](O)[C@@H]1O [L-fucose-1-P]
EP-P2 [5]
  transfer to UDP-L-Fucose: 82%

## C[C@H](O)[C@@H](O)[C@@H](O)[C@H](O)C=O [L-fucose]
[2]
  degree reaction proceeded to completion (ATP to ADP conversion), WT Pyrococcus furiosus: 40%
E. coli GalKMLYH
  activity of GalK mutant on substrate: did not display significant activity

## O=C[C@H](O)[C@@H](O)[C@@H](O)CO [L-arabinose]
E. coli GalKMLYH
  activity of GalK mutant on substrate: did not display significant activity
